The subject of this data set is CCRIS mutagenicity, Ames/micronucleus/aberration tests. Description: CCRIS mutagenicity studies.
The mark [1] stands for this setting: Test System: AMES SALMONELLA TYPHIMURIUM, Strain/Indicator: TA98, Metabolic Activation: NONE, Method: STANDARD PLATE.
The mark [2] stands for this setting: Test System: AMES SALMONELLA TYPHIMURIUM, Strain/Indicator: TA100, Metabolic Activation: NONE, Method: STANDARD PLATE.
The mark [3] stands for this setting: Test System: AMES SALMONELLA TYPHIMURIUM, Strain/Indicator: TA100, Metabolic Activation: NONE, Method: PREINCUBATION
[4] abbreviates: Test System: AMES SALMONELLA TYPHIMURIUM, Strain/Indicator: TA100, Metabolic Activation: RAT, LIVER, S-9, AROCLOR 1254, Method: PREINCUBATION

Active and inactive are the calls of the source. The rule behind the calls is not given here.

As for `N#CC(Br)Br`, the mutagenic call by setting is: (End Point: In vivo micronucleus, Test System: Peripheral blood normochromatic erythrocytes, Species: Mouse, Strain/Sex: B6C3F1/ Female, Route: Oral) “inactive; negative”; (End Point: In vivo micronucleus, Test System: Peripheral blood normochromatic erythrocytes, Species: Mouse, Strain/Sex: B6C3F1/ Male, Route: Oral) “inactive; negative”; under setting [1], “inactive; negative”; (Test System: AMES SALMONELLA TYPHIMURIUM, Strain/Indicator: TA98, Metabolic Activation: RAT, LIVER, S-9, AROCLOR 1254, Method: STANDARD PLATE) “inactive; negative”; (Test System: AMES SALMONELLA TYPHIMURIUM, Strain/Indicator: TA100, Metabolic Activation: NONE, Method: FLUCTUATION TEST) “inactive; negative”; under setting [2], “inactive; negative”. In addition, the mutagenic call runs as follows: (Test System: AMES SALMONELLA TYPHIMURIUM, Strain/Indicator: TA100, Metabolic Activation: RAT, LIVER, S-9, AROCLOR 1254, Method: FLUCTUATION TEST) “inactive; negative”; (Test System: AMES SALMONELLA TYPHIMURIUM, Strain/Indicator: TA100, Metabolic Activation: RAT, LIVER, S-9, AROCLOR 1254, Method: STANDARD PLATE) “inactive; negative”; (Test System: AMES SALMONELLA TYPHIMURIUM, Strain/Indicator: TA1535, Metabolic Activation: NONE, Method: STANDARD PLATE) “inactive; negative”; (Test System: AMES SALMONELLA TYPHIMURIUM, Strain/Indicator: TA1535, Metabolic Activation: RAT, LIVER, S-9, AROCLOR 1254, Method: STANDARD PLATE) “inactive; negative”; (Test System: Ames Salmonella typhimurium, Strain/Indicator: TA97, Metabolic Activation: Hamster, Liver, S-9, Aroclor 1254 (10%), Method: Preincubation) “active; positive”; (Test System: Ames Salmonella typhimurium, Strain/Indicator: TA97, Metabolic Activation: Hamster, Liver, S-9, Aroclor 1254 (30%), Method: Preincubation) “inactive; negative”. The mutagenic call runs as follows: (Test System: Ames Salmonella typhimurium, Strain/Indicator: TA97, Metabolic Activation: None, Method: Preincubation) “active; positive”; (Test System: Ames Salmonella typhimurium, Strain/Indicator: TA97, Metabolic Activation: Rat, Liver, S-9, Aroclor 1254 (10%), Method: Preincubation) “active; positive”; (Test System: Ames Salmonella typhimurium, Strain/Indicator: TA97, Metabolic Activation: Rat, Liver, S-9, Aroclor 1254 (30%), Method: Preincubation) “inactive; negative”; (Test System: Ames Salmonella typhimurium, Strain/Indicator: TA98, Metabolic Activation: Hamster, Liver, S-9, Aroclor 1254 (10%), Method: Preincubation) “inactive; negative”; (Test System: Ames Salmonella typhimurium, Strain/Indicator: TA98, Metabolic Activation: Hamster, Liver, S-9, Aroclor 1254 (10 and 30%), Method: Preincubation) “inactive; negative”; (Test System: Ames Salmonella typhimurium, Strain/Indicator: TA98, Metabolic Activation: None, Method: Preincubation) “inactive; negative”. Moreover, the mutagenic call is “inactive; negative” (Test System: Ames Salmonella typhimurium, Strain/Indicator: TA98, Metabolic Activation: Rat, Liver, S-9, Aroclor 1254 (10%), Method: Preincubation); “inactive; negative” (Test System: Ames Salmonella typhimurium, Strain/Indicator: TA98, Metabolic Activation: Rat, Liver, S-9, Aroclor 1254 (10 and 30%), Method: Preincubation); “inactive; negative” (Test System: Ames Salmonella typhimurium, Strain/Indicator: TA100, Metabolic Activation: Hamster, Liver, S-9, Aroclor 1254 (30%), Method: Preincubation); “inactive; negative” (Test System: Ames Salmonella typhimurium, Strain/Indicator: TA100, Metabolic Activation: Rat, Liver, S-9, Aroclor 1254 (10%), Method: Preincubation); “inactive; negative” (Test System: Ames Salmonella typhimurium, Strain/Indicator: TA1535, Metabolic Activation: None, Method: Preincubation); “inactive; negative” (Test System: Ames Salmonella typhimurium, Strain/Indicator: TA1535, Metabolic Activation: Rat, Liver, S-9, Aroclor 1254 (30%), Method: Preincubation). The mutagenic call by setting is: (Test System: Ames Salmonella typhimurium, Strain/Indicator: TA1537, Metabolic Activation: Hamster, Liver, S-9, Aroclor 1254 (30%), Method: Preincubation) “inactive; negative”; (Test System: Ames Salmonella typhimurium, Strain/Indicator: TA1537, Metabolic Activation: None, Method: Preincubation) “inactive; negative”; (Test System: Ames Salmonella typhimurium, Strain/Indicator: TA1537, Metabolic Activation: Rat, Liver, S-9, Aroclor 1254 (10%), Method: Preincubation) “inactive; negative”; (Test System: Ames Salmonella typhimurium, Strain/Indicator: TA1538, Metabolic Activation: None, Method: Preincubation) “inactive; negative”; (Test System: E. coli, Strain/Indicator: WPM uvrA/pKM101, Metabolic Activation: Hamster, Liver, S-9, Aroclor 1254 (10%), Method: Preincubation) “active; positive”; (Test System: E. coli, Strain/Indicator: WPM uvrA/pKM101, Metabolic Activation: None, Method: Preincubation) “inactive; negative”. In addition, the mutagenic call (Test System: E. coli, Strain/Indicator: WPM uvrA/pKM101, Metabolic Activation: Rat, Liver, S-9, Aroclor 1254 (10%), Method: Preincubation) was “inactive; negative”.
In the case of `OC1C=C2c3ccc4ccccc4c3-c3cccc(c32)C1O` (stereo not given), the mutagenic call reads like this: (Test System: AMES SALMONELLA TYPHIMURIUM, Strain/Indicator: TA97A, Metabolic Activation: NONE, Method: PREINCUBATION) “inactive; negative”; (Test System: AMES SALMONELLA TYPHIMURIUM, Strain/Indicator: TA97A, Metabolic Activation: RAT, LIVER, S-9, AROCLOR 1254, Method: PREINCUBATION) “active; positive”; (Test System: AMES SALMONELLA TYPHIMURIUM, Strain/Indicator: TA98, Metabolic Activation: NONE, Method: PREINCUBATION) “inactive; negative”; (Test System: AMES SALMONELLA TYPHIMURIUM, Strain/Indicator: TA98, Metabolic Activation: RAT, LIVER, S-9, AROCLOR 1254, Method: PREINCUBATION) “active; positive”; under setting [3], “active; positive”; under setting [4], “active; positive”.
In the case of `CC1(C)CC2=C(C=O)[C@@]3(C=O)C[C@@]3(C)[C@@H](O)[C@@H]2C1`, the mutagenic call under setting [1] is “active; positive”; the mutagenic call under setting [2] was “active; positive”; the mutagenic call (Test System: CHINESE HAMSTER V-79, Strain/Indicator: V-79/6-THIOGUANINE (HGPRT), Metabolic Activation: NONE) is “inactive; negative”.
For the molecule `O=c1ccn([C@H]2C[C@H](O)[C@@H](CO)O2)c(=O)[nH]1`, the mutagenic call is “inactive; negative” (Test System: AMES SALMONELLA TYPHIMURIUM, Strain/Indicator: TA97, Metabolic Activation: NONE, Method: PREINCUBATION); “inactive; negative” (Test System: AMES SALMONELLA TYPHIMURIUM, Strain/Indicator: TA97, Metabolic Activation: RAT, LIVER, S-9, AROCLOR 1254, Method: PREINCUBATION); “inactive; negative” under setting [3]; “inactive; negative” under setting [4]; “inactive; negative” (Test System: CHINESE HAMSTER V-79, Strain/Indicator: V-79/8-AZAGUANINE, Metabolic Activation: NONE).
